The text below walks through data of patent US20100081630A1, “Heparin Compositions and Selectin Inhibition” (University of California, priority 2005, published 2010).

One series has as its system tumor cells. As to conditions: cited from earlier work.
For series [1] the following is noted: hirudin 10 mg/kg, at the time of tumor cell injection; almost all above limits of detection; cited from earlier work.
The conditions of series [2]: incorporated into liposomes; cited from earlier work.
The nature of series [3]: Plasma anti-Xa levels after subcutaneous heparin dosing. It is filed as in vivo. As to conditions: mice. The method, then: Anti-Xa levels were measured in plasma from multiple mice, 30 min after each mouse received a single “1×” or “3×” subcutaneous dose of various heparins. Each open circle represents one mouse and horizontal bars represent mean values.
Titrating Heparin Dosage via Plasma Anti-Xa Levels: Mice were injected subcutaneously with 100 ul of UFH, TINZ, or FOND diluted in PBS, at various final concentrations. Thirty minutes later, blood was collected by cardiac puncture into 1 cc syringe containing 30 ul 10 mM EDTA. Samples were centrifuged twice at 2,000 rcf at 24° C. to collect the plasma, which was stored at −80° C. until analysis for anti-Xa activity. […] The resulting chromophore was measured at 405 nm. Plasma heparin levels were calculated in anti-Xa units/ml by comparing against a standard curve of heparin-spiked mouse plasma samples. Standards and samples were analyzed in triplicate. […]
Pharmacokinetic Studies in Mice to Normalize Heparin Dosing. […] Therapeutic levels for patients treated with heparin for venous thromboembolism are ˜1 anti-factor Xa unit/ml for LMWHs, typically measured at 3-4 hours after injection. […] Plasma anti-Xa levels were analyzed 30 minutes after subcutaneous delivery, which is when the tumor cells would be injected into the vasculature in the planned metastasis experiments. […] Single heparin doses were increased from “1×” to “3×” dosing, and analyzed the anti-Xa levels (FIG. 2B). […]

Another series concerns B16F1 cells. The series can be described thus: Melanoma experimental metastasis assay. Format: in vivo, mouse. As to conditions: 1× dose s.c. 30 min before i.v. B16F1 cells; day 17. As to the method: FIG. 4 depicts heparins with selectin-inhibitory activity that inhibit metastasis of melanoma cells. Mice were injected subcutaneously with “1×” heparin (A) or “3×” heparin (B) (or PBS as a control), and 30 minutes later were injected intravenously with B16F1 cells. After 17 days, mice were euthanized, lungs perfused with formalin through the trachea and then allowed to fix in formalin for a minimum of 24 hours. Metastasis was quantified by measuring lung weight, which correlated well with the physical appearance of the lungs, documented by photography (representative pictures are shown below quantification). Open circles each represent one mouse and horizontal bars represent mean lung weights. P-values were determined by a Student's T-test, assuming two-tailed, unequal distribution.
Melanoma Experimental Metastasis Assay: Mice were injected with heparin and 500,000 B16F1 cells using the protocol described for the carcinoma metastasis assay. […] Lung weights were determined by removing the lungs from formalin, briefly setting them on filter paper to remove excess liquid, and then weighing them on a Sartorius analytical scale.
Heparin Inhibition of Melanoma Metastasis is Also Dependent on Selectin-Inhibitory Activity. […] Seventeen days following injection, the lungs were excised and evaluated for the presence of metastatic foci. […]

As to hirudin, the “pulmonary arrest of tumor cells” value in the series on tumor cells (hirudin 10 mg/kg twenty minutes prior to tumor cell injection) was “decreased pulmonary arrest of tumor cells”. Besides, the “formation of metastatic foci” value in the series on tumor cells (hirudin 20 mg/kg before, 4 h after, then every other day for 10 days, i.v. tumor cells) is “significant decrease in formation of metastatic foci”. Moreover, in series [1], the “clotting time in activated partial thromboplastin time test” value is more than 300 s.
Take `CCCCCCCCCCCCCCCC(=O)OCn1ccnc1` [PMI, 1-(palmitoyloxymethyl)imidazole]: the “apparent pKa” value in series [2] is on record as 5.12.
For `CO[C@H]1O[C@H](COS(=O)(=O)O)[C@@H](O[C@@H]2O[C@@H](C(=O)O)[C@@H](O[C@H]3O[C@H](COS(=O)(=O)O)[C@@H](O[C@@H]4O[C@H](C(=O)O)[C@@H](O[C@H]5O[C@H](COS(=O)(=O)O)[C@@H](O)[C@H](O)[C@H]5NS(=O)(=O)O)[C@H](O)[C@H]4O)[C@H](OS(=O)(=O)O)[C@H]3NS(=O)(=O)O)[C@H](O)[C@H]2OS(=O)(=O)O)[C@H](O)[C@H]1NS(=O)(=O)O` [FOND, Fondaparinux], the “mean plasma anti-Xa level” value in series [3] (30 min after single subcutaneous 1× dose, range meant: therapeutic ~1 anti-factor Xa unit/ml) is listed as “within this range”. In addition, in series [3] (30 min after single subcutaneous 3× dose), the “plasma anti-Xa level” value was “at or above the accepted range for clinical anticoagulation”. The “metastasis (lung weight)” value in the series on B16F1 cells is recorded as “no effect”.
